Assay results: patent publication US5674730A, “Eukaryotic cells comprising a DNA sequence encoding a bacterial-viral chimeric transactivator protein” (priority 1993, dated 1997)

Columns and labels:
Format in all cases: cell-based
[1] = tested on: LAP348 lac activator protein: E. coli lacI 5'N1 with HSV VP16 amino acids 369-488 inserted after lacI amino acid 348, stably expressed; assay: CAT assay in cell line stably expressing LAP348, with or without IPTG (FIG. 8); conditions: IPTG (10 mM per FIG. 8 legend) added to medium two days before transfection; LAPneo2b cells
Experimental: FIG. 8 Inhibition of LAP348 activity of L3 cells by IPTG. Either LTK or L3, or L3 cells grown in the presence of 10 mM IPTG (L3+i) for 48 hours before transfection, were transfected with either pSV2cat or pL1-2cat as indicated. The relative activity of the extracts normalized to that produced by SV2cat in Ltk- cells are shown below.
(§1) Cells were transfected by the calcium phosphate precipitation method as previously described (Wigler et al., 1979, Proc. Natl. Acad. Sci. USA 76:1373-1376). For transient expression assays, 50-70% confluent […] of cells were incubated overnight after addition to the media of a 1 ml precipitate containing 2 μg of reporter and 1 μg of effector plasmids and carrier DNA (high molecular weight calf thymus DNA) for a total of 25 μg of DNA. The media and precipitate were removed and replaced with fresh media the next morning.
(§2) Cells were harvested 44-48 hours after transfection and CAT assays performed essentially as described (Gorman et al., 1982, Mol. Cell Biol. 2:1044-1051). Equal amounts (30-200 μg) of protein were used in each experiment. CAT activity was quantitated by thin layer chromatography and liquid scintillation counting of spots. Extracts that converted greater than 80% of the chloramphenicol in an assay were diluted appropriately to ensure linearity of the assay. […]

[2] = tested on: LAP348 lac activator protein: E. coli lacI 5'N1 (SV40 nuclear localization signal) with HSV VP16 amino acids 369-488 inserted after lacI amino acid 348; assay: Transient cotransfection CAT assay with or without IPTG in the growth medium (FIG. 6); conditions: 10 mM IPTG in growth medium; HeLa cells cotransfected with pL1-2CAT and pHCMVLAP348
Experimental: FIG. 6 Inhibition of LAP activity by IPTG. HeLa cells were plated out two days before transfection in normal media or media containing 10 mM IPTG. Transfections contained 2 μg of either pSV2CAT or pL1-2CAT alone or with 1 μg of pHCMVLAP348. Cells transfected in IPTG were fed with media containing 10 mM IPTG 16 hours after transfection. CAT assays were preformed as described in the text. The relative activities (RA) of each extract normalized to that produced by pSV2CAT are shown below the figure.
as §1
as §2, with “spots.” for “spots. Extracts that converted greater than 80% of the chloramphenicol in an assay were diluted appropriately to ensure linearity of the assay.”

[3] = tested on: LAP267 temperature-sensitive lac activator protein: E. coli lacI 5'N1 with HSV VP16 segment inserted after lacI amino acid 267; assay: CAT expression from pL14CAT as a function of IPTG concentration at 39.5° C. (FIG. 9); conditions: 39.5° C. (non-permissive temperature); HeLa cells cotransfected with LAP267 and pL14CAT
Experimental: FIG. 9 Reverse-regulatory effect of IPTG on transactivator activity of LAP267 at 39.5° C.
LAP267 was constructed as described for LAP348 in Section 6.1.1., supra, except that the VP16 segment was inserted at an EcoRV site after amino acid 267 in the lacI coding region (FIG. 1A).
HeLa cells were cotransfected with plasmids encoding the LAP267 or LAP348 activator protein and pL14CAT, encoding CAT reporter gene. […] This property enables the expression of genes controlled by LAP267 to be induced at 39.5° C. by addition of IPTG to the culture medium.

## CC(C)S[C@@H]1O[C@H](CO)[C@H](O)[C@H](O)[C@H]1O [IPTG, isopropyl β-D-thiogalactoside]
[1]
  reduction of expression of pL1-2CAT in LAP348-expressing cell line: greater than 30 fold
[2]
  reduction of the level of activation of pL1-2CAT by LAP348: greater than 10 fold
[3]
  effect of IPTG on transactivator activity of LAP267: reverse regulator
